This note sets out measurements from ChEMBL document CHEMBL1201862, “PubChem BioAssay data set” (2004).

Structures are written as SMILES.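 Step 1: Grow cells in 96-well plates. Step 2: Expose to compound for 48 hours at 5 concentrations. Step 3: Interpolate endpoints linearly; if unreached, use highest concentration. GI50 is the concentration that inhibits growth by half.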 Active and inactive are the calls of the source. Rule as the data show it: active = GI50 up to about 1.1 µM and inactive = higher. Some results are limits rather than exact numbers.

Experiment in all cases: NCI-60 cell line screen, 48 h
For assay [1], the system named is HCC 2998.
Assay [2] deals with SK-OV-3.
The subject of assay [3] is U-251.
For assay [4], the system named is UO-31.
The subject of assay [5] is HT-29.
Assay [6] deals with NCI-H23.
For assay [7], the system named is KM12.
Assay [8] concerns OVCAR-5.
Assay [9] concerns SW-620.
The subject of assay [10] is SNB-19.
Assay [11] concerns HL-60.
Assay [12] deals with SF-268.
Assay [13] relates to SK-MEL-28.
Assay [14] has as its system OVCAR-8.
Assay [15] concerns COLO 205.
Assay [16] concerns ACHN.
The subject of assay [17] is HCT-15.
In assay [18] the test system is SF-539.
For assay [19], the system named is OVCAR-3.
Assay [20] has as its system MDA-N.

Take `CC1=C(C(=O)NNS(=O)(=O)c2ccc(C)cc2)CC(C(=O)NNS(=O)(=O)c2ccc(C)cc2)=C(C)N1`: the GI50 in [1], in assay [2], in assay [3], in assay [4], in assay [5] and in assay [6] was > 100 µM (inactive) in each case. Also, the GI50 in assay [7] is > 100 µM (inactive); in [8], 70.1 µM (inactive); in assay [9] it was > 100 µM (inactive); in assay [10], > 100 µM (inactive); in assay [11], 55.1 µM (inactive); in [12] it was > 100 µM (inactive). For the same molecule, the GI50 in [13] is > 100 µM (inactive); in assay [14], > 100 µM (inactive); in assay [15], > 100 µM (inactive); in assay [16], 84.9 µM (inactive); in assay [17], more than 100 µM; in assay [18], > 100 µM (inactive). In assay [19], the GI50 is > 100 µM (inactive).
Consider `COC(=O)NCCc1n[nH]c2c1C(=O)C=C(N1CCOCC1)C2=O`, for which the GI50 in assay [1], in [20], in [2], in [3], in [4] and in assay [5] was > 100 µM (inactive) in each case. Also, the GI50 in assay [6], in assay [7], in assay [8], in assay [9], in assay [10] and in [11] was > 100 µM (inactive) each time. Also, the GI50 in assay [12] was > 100 µM (inactive); in [13] it was > 100 µM (inactive); in [14] it was > 100 µM (inactive); in assay [15], > 100 µM (inactive); in assay [16], > 100 µM (inactive); in assay [17], more than 100 µM. Also, the GI50 in assay [18] and in assay [19] was > 100 µM (inactive) each time.
Take `COc1ccc(C(O)(c2ccccc2)c2nccc3ccccc23)cc1` (stereo not given): the GI50 in [20] was 3.2 µM (inactive); in assay [2], 4.06 µM (inactive); in assay [3], 11.7 µM (inactive); in [4] it was 21 µM (inactive); in assay [5] it was 7.46 µM (inactive); in [6] it was 16.6 µM (inactive). Also, the GI50 is 5.71 µM (inactive) in assay [7]; 11.5 µM (inactive) in [8]; 11.9 µM (inactive) in assay [10]; 2.32 µM (inactive) in assay [11]; 12.4 µM (inactive) in assay [12]; 41.4 µM (inactive) in assay [13]. The GI50 in assay [14] was 18.1 µM (inactive); in [15] it was 4.47 µM (inactive); in assay [16], 12.3 µM (inactive); in [17] it was 4.58 µM; in assay [19], 2.48 µM (inactive).
In the case of `CCOC(=O)C1(C(=O)OCC)CSC1`, the GI50 is 0.192 µM (active) in assay [1]; > 100 µM (inactive) in assay [20]; > 100 µM (inactive) in [2]; > 100 µM (inactive) in [3]; > 100 µM (inactive) in assay [4]; > 100 µM (inactive) in assay [5]. The GI50 in assay [6], in assay [7], in assay [9], in assay [10], in [12] and in assay [13] was > 100 µM (inactive) in each case. The GI50 in assay [14] is > 100 µM (inactive); in assay [15], > 100 µM (inactive); in assay [16], > 100 µM (inactive); in assay [17] it was more than 100 µM; in assay [19], > 100 µM (inactive).
`N#Cc1c(NC(=S)Nc2ccc(Cl)cc2)sc2c1CCCC2`: the GI50 is 64.1 µM (inactive) in [1]; > 100 µM (inactive) in [20]; > 100 µM (inactive) in assay [3]; > 100 µM (inactive) in assay [4]; > 100 µM (inactive) in [5]; > 100 µM (inactive) in [6]. In addition, the GI50 in [7] is > 100 µM (inactive); in assay [8] it was > 100 µM (inactive); in assay [9], > 100 µM (inactive); in [10], > 100 µM (inactive); in assay [11] it was 34.8 µM (inactive); in assay [12], > 100 µM (inactive). Moreover, the GI50 was > 100 µM (inactive) in assay [13]; 14.8 µM (inactive) in [14]; > 100 µM (inactive) in assay [15]; > 100 µM (inactive) in [16]; more than 100 µM in assay [17]; > 100 µM (inactive) in assay [19].
With `CC(=O)OC/C=C\Cn1nc(Br)c(=O)[nH]c1=O`, the GI50 in assay [1] is 15.7 µM (inactive); in assay [20], 15.6 µM (inactive); in [3], 10.5 µM (inactive); in assay [4], 16.4 µM (inactive); in assay [6], 15.1 µM (inactive); in [7], 15.5 µM (inactive). Further, the GI50 is 17.9 µM (inactive) in assay [8]; 14.3 µM (inactive) in assay [9]; 18.7 µM (inactive) in [10]; 4.69 µM (inactive) in assay [11]; 14.9 µM (inactive) in [12]; 16.4 µM (inactive) in assay [13]. Besides, the GI50 is 14.9 µM (inactive) in assay [14]; 13.5 µM (inactive) in [15]; 7.87 µM (inactive) in assay [16]; 13.1 µM in [17]; 11.2 µM (inactive) in assay [18]; 9.75 µM (inactive) in assay [19].
In the case of `O=C1c2ccccc2C(=O)N1CC(CN1C(=O)c2ccccc2C1=O)(C(=O)OCc1ccccc1)C(=O)OCc1ccccc1`, the GI50 in [1], in assay [20], in [2], in [3], in assay [4] and in [5] was > 100 µM (inactive) each time. The GI50 in assay [6], in [7], in assay [8], in [10], in [11] and in assay [13] was > 100 µM (inactive) each time. The GI50 in assay [14] is > 100 µM (inactive); in [15] it was > 100 µM (inactive); in [17], more than 100 µM; in assay [19], > 100 µM (inactive).
Consider `NC(=O)Nc1ccc(C(=O)NCCCNC(=O)c2ccc(NC(N)=O)cc2)cc1`, for which the GI50 in assay [1], in [20], in assay [3], in [4], in assay [5] and in assay [6] was > 100 µM (inactive) throughout. The GI50 in assay [7], in assay [8], in assay [9], in assay [10], in assay [11] and in assay [12] was > 100 µM (inactive) in each case. Further, the GI50 is > 100 µM (inactive) in assay [13]; > 100 µM (inactive) in assay [14]; > 100 µM (inactive) in assay [15]; > 100 µM (inactive) in assay [16]; more than 100 µM in assay [17]; > 100 µM (inactive) in assay [18].
Turning to `C[N+]1(C)CCCC(C#N)(c2ccccc2)CC1` (stereo not given), the GI50 in assay [1], in assay [20], in assay [2], in assay [3], in [4] and in assay [5] was > 100 µM (inactive) throughout. Moreover, the GI50 in assay [6], in assay [7], in [8], in [9], in assay [10] and in [11] was > 100 µM (inactive) in each case. The GI50 in [12] was > 100 µM (inactive); in [13] it was > 100 µM (inactive); in [14] it was > 100 µM (inactive); in [15], > 100 µM (inactive); in assay [16], > 100 µM (inactive); in assay [17], more than 100 µM.
Consider `COc1ccc2[nH]c3c(C)c4ccnc(NCCCN(C)CCCNc5ccc6nnn7c8ccccc8c(=O)c5c67)c4c(C)c3c2c1`, for which the GI50 is 0.209 µM (active) in [1]; 0.583 µM (active) in assay [20]; 2.64 µM (inactive) in assay [2]; 0.223 µM (active) in assay [3]; 0.603 µM (active) in assay [4]; 0.0266 µM (active) in assay [5]. The GI50 was 0.745 µM (active) in [6]; 0.432 µM (active) in assay [7]; 1.24 µM (inactive) in assay [8]; 0.013 µM (active) in [9]; 0.711 µM (active) in [10]; 0.135 µM (active) in assay [11]. Besides, the GI50 in assay [12] is 0.679 µM (active); in assay [13], 1.75 µM (inactive); in assay [14] it was 0.297 µM (active); in [15] it was 0.367 µM (active); in assay [16] it was 0.0773 µM (active); in assay [17], 0.114 µM. Moreover, the GI50 is 0.237 µM (active) in [18] and 1.17 µM (inactive) in [19].
In the case of `O=C1C=C(N2CC2)C(=O)C=C1N1CC1`, the GI50 in assay [1] is 0.307 µM (active); in [20] it was 0.515 µM (active); in assay [2], 0.522 µM (active); in [3] it was 0.229 µM (active); in assay [4], 0.104 µM (active); in [5], 0.204 µM (active). The GI50 in assay [6] was 0.0904 µM (active); in [7], 0.824 µM (active); in assay [8], 0.646 µM (active); in assay [9], 0.0891 µM (active); in [10], 0.904 µM (active); in assay [11], 0.0265 µM (active). Further, the GI50 is 0.155 µM (active) in [12]; 0.29 µM (active) in [13]; 0.0984 µM (active) in [15]; 0.0423 µM (active) in assay [16]; 0.102 µM in [17]; 0.0931 µM (active) in assay [18]. Besides, in [19], the GI50 was 0.0889 µM (active).
